Experimental findings from ChEMBL document CHEMBL3217648, “Glycosylated porphyrin derivatives and their photodynamic activity in cancer cells” (Medchemcomm, 2011) are described below.

Each structure is given as a SMILES string. The source made the active and inactive calls. The calls are words filed in the database; no cut-off is given here. Where only a bound is given, the exact number is not on record here.

The subject of one data set is HCT-116. Kind of data set: Phototoxicity against human HCT116 cells at 1 uM after 24 hrs followed by halogen light irradiation by MTS assay. Format: functional, cell-based.
Data set [1] deals with HeLa. The data set is described as follows: Phototoxicity against human HeLa cells at 1 uM after 24 hrs followed by halogen light irradiation by MTS assay. Format: functional, cell-based. Background: Tetrazolium assays rely on reduction of a dye to a coloured formazan, in cell work by metabolically active cells.
A short description of data set [2]: Dark toxicity against human HeLa cells assessed as cell viability at 1 uM after 24 hrs by MTS assay. Format: cell-based. As to conditions: read-out: Survival.
Data set [3] in a line: Dark toxicity against human HCT116 cells assessed as cell viability at 1 uM after 24 hrs by MTS assay. The following applies: read-out: Survival. Format: cell-based, HCT-116.
The subject of data set [4] is HeLa. The data set is described as follows: Cellular uptake in human HeLa cells at 1 uM after 24 hrs by fluorescence microscopy. Format: ADME, cell-based.

As for `CC1(C)O[C@H]2[C@@H](O1)[C@@H](c1c3nc(c(-c4ccc(Cl)cc4)c4ccc([nH]4)c([C@H]4O[C@@H]5OC(C)(C)O[C@@H]5[C@H]5OC(C)(C)O[C@H]54)c4nc(c(-c5ccc(Cl)cc5)c5ccc1[nH]5)C=C4)C=C3)O[C@@H]1OC(C)(C)O[C@@H]12`, the outcome in the data set with HCT-116 and in the data set with HeLa [1] was inactive.
Turning to `CC1(C)O[C@H]2[C@@H](O1)[C@@H](c1c3nc(c(-c4ccc(OC(F)(F)F)cc4)c4ccc([nH]4)c([C@H]4O[C@@H]5OC(C)(C)O[C@@H]5[C@H]5OC(C)(C)O[C@H]54)c4nc(c(-c5ccc(OC(F)(F)F)cc5)c5ccc1[nH]5)C=C4)C=C3)O[C@@H]1OC(C)(C)O[C@@H]12`, the result with HCT-116 and with HeLa [1] was inactive.
For the compound `CC1(C)O[C@H]2[C@@H](O1)[C@@H](C=O)O[C@@H]1OC(C)(C)O[C@@H]12`, the outcome in the data set with HCT-116 and with HeLa [1] was inactive.
On to `CC1(C)O[C@H]2[C@@H](O1)[C@@H](c1c3nc(c(-c4ccc([N+](=O)[O-])cc4)c4ccc([nH]4)c([C@H]4O[C@@H]5OC(C)(C)O[C@@H]5[C@H]5OC(C)(C)O[C@H]54)c4nc(c(-c5ccc([N+](=O)[O-])cc5)c5ccc1[nH]5)C=C4)C=C3)O[C@@H]1OC(C)(C)O[C@@H]12`, for which the result with HCT-116 and in the data set on HeLa [1] was inactive.
For `CC1(C)O[C@H]2[C@@H](O1)[C@@H](c1c3nc(c(-c4c(F)c(F)c(F)c(F)c4F)c4ccc([nH]4)c([C@H]4O[C@@H]5OC(C)(C)O[C@@H]5[C@H]5OC(C)(C)O[C@H]54)c4nc(c(-c5c(F)c(F)c(F)c(F)c5F)c5ccc1[nH]5)C=C4)C=C3)O[C@@H]1OC(C)(C)O[C@@H]12`, the result in the data set with HCT-116 and with HeLa [1] was inactive.
`COc1cccc(OC)c1-c1c2nc(c([C@H]3O[C@@H]4OC(C)(C)O[C@@H]4[C@H]4OC(C)(C)O[C@H]43)c3ccc([nH]3)c(-c3c(OC)cccc3OC)c3nc(c([C@H]4O[C@@H]5OC(C)(C)O[C@@H]5[C@H]5OC(C)(C)O[C@H]54)c4ccc1[nH]4)C=C3)C=C2`: the outcome in the data set with HCT-116 and in the data set on HeLa [1] was inactive.
In the case of `COc1ccc(-c2c3nc(c([C@H]4O[C@@H]5OC(C)(C)O[C@@H]5[C@H]5OC(C)(C)O[C@H]54)c4ccc([nH]4)c(-c4ccc(OC)cc4)c4nc(c([C@H]5O[C@@H]6OC(C)(C)O[C@@H]6[C@H]6OC(C)(C)O[C@H]65)c5ccc2[nH]5)C=C4)C=C3)cc1`, the viability at 24 h, 1 µM in data set [2] and in data set [3] was greater than 90% throughout. Further, the outcome with HCT-116 and in the data set with HeLa [1] was Active. In addition, the Drug uptake entry with HeLa [4] is given as “Not Active”.
As for `CC1(C)O[C@H]2[C@@H](O1)[C@@H](c1c3nc(c(-c4ccccc4)c4ccc([nH]4)c([C@H]4O[C@@H]5OC(C)(C)O[C@@H]5[C@H]5OC(C)(C)O[C@H]54)c4nc(c(-c5ccccc5)c5ccc1[nH]5)C=C4)C=C3)O[C@@H]1OC(C)(C)O[C@@H]12`, the outcome with HCT-116 and in the data set with HeLa [1] was inactive.
Turning to `CSc1ccc(-c2c3nc(c([C@H]4O[C@@H]5OC(C)(C)O[C@@H]5[C@H]5OC(C)(C)O[C@H]54)c4ccc([nH]4)c(-c4ccc(SC)cc4)c4nc(c([C@H]5O[C@@H]6OC(C)(C)O[C@@H]6[C@H]6OC(C)(C)O[C@H]65)c5ccc2[nH]5)C=C4)C=C3)cc1`, the viability at 24 h, 1 µM in data set [2] and in data set [3] was greater than 90% throughout. The outcome in the data set on HCT-116 and in the data set with HeLa [1] was Active. For the same compound, the Drug uptake entry in the data set with HeLa [4] was “Not Active”.
As to `CC1(C)O[C@H]2[C@@H](O1)[C@@H](c1c3nc(c(-c4ccsc4)c4ccc([nH]4)c([C@H]4O[C@@H]5OC(C)(C)O[C@@H]5[C@H]5OC(C)(C)O[C@H]54)c4nc(c(-c5ccsc5)c5ccc1[nH]5)C=C4)C=C3)O[C@@H]1OC(C)(C)O[C@@H]12`, the viability at 24 h, 1 µM in data set [2] and in data set [3] was greater than 90% throughout. Moreover, the outcome with HCT-116 and with HeLa [1] was Active. Also, the Drug uptake entry in the data set with HeLa [4] is “Active”.
